The values below come from patent US20070032477A1, “Pteridine derivatives useful for making pharmaceutical compositions” (priority 2003, published 2007).

The subject of assay [1] is mixed lymphocyte reaction (PBMC with allogeneic PBMC or Eppstein-Barr Virus-transformed human B cells as stimulator cells). Put plainly: Mixed lymphocyte reaction (MLR) assay. Type of assay: cell-based. To be noted: lowest concentration giving 50% suppression of the MLR; [3H]-thymidine.
In assay [2] the test system is production of IL-1 β by PBMC in response to stimulation by LPS. Kind of assay: IL-1 β assay. Type of assay: cell-based, human. The note with it: LPS 1 μg/ml, 72 hours, sandwich ELISA. Here is the method:
Peripheral blood mononuclear cells (herein referred as PBMC), in response to stimulation by lipopolysaccharide (LPS), a gram-negative bacterial endotoxin, produce various […], in particular human IL-1 β. Inhibition of the activation of PBMC can therefore be measured by the level of suppression of the production of IL-1 β by PBMC in response to stimulation by LPS.
Such inhibition measurement was performed as follows: PBMC were isolated from heparinized peripheral blood by density gradient centrifugation over Lymphoprep (commercially available from Nycomed, Norway). LPS was then added to the PMBC suspension in complete medium (10^6 cells/ml) at a final concentration of 1 μg/ml. The pteridine derivative to be tested was added at different concentrations (0.1 μM, 1 μM and 10 μM) and the cells were incubated at 37° C. for 72 hours in 5% CO2. The supernatants were collected, then IL-1 β concentrations were measured with an anti-IL-1 β antibody in a sandwich ELISA. The calorimetric reading of the ELISA was measured by a Multiskan RC plate reader (commercially available from ThermoLabsystems, Finland) at 450 nm (reference wavelength: 690 nm). Data analysis was performed with Ascent software 2.6. (also from ThermoLabsystems, Finland): a standard curve (recombinant human IL-1 β) was drawn and the amount (pg/ml) of each sample on the standard curve was determined.
The % suppression of human IL-1 β by the pteridine derivatives (drugs) of this invention was calculated using the formula: [formula]

The subject of assay [3] is production of TNF-α by PBMC in response to stimulation by LPS. Put plainly: TNF-α assay. In kind it is cell-based, human. To be noted: LPS 1 μg/ml, 72 hours, sandwich ELISA. A digest of the protocol: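 Cells were LPS-stimulated (1 μg/ml final) peripheral blood mononuclear cells at 10^6/ml, exposed 72 h at 37 °C to 0.1, 1 or 10 μM test compound.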

For `COc1ccc(-c2cnc3nc(N)nc(N4CCN(c5ccc(F)cc5)CC4)c3n2)cc1OC` [Example 172, 2-amino-6-(3,4-dimethoxyphenyl)-4-((4-fluorophenyl)-piperazin-1-yl)pteridine], the IC50 in assay [1] is 100 nM; in assay [2], 5100 nM; in assay [3] it was 50 nM.
Take `COc1ccc(-c2cnc3nc(N)nc(N4CCN(Cc5ccccc5)CC4)c3n2)cc1OC` [Example 65, 2-amino-4-(N-benzylpiperazin-1-yl)-6-(3,4-dimethoxyphenyl)pteridine]: the values for the IC50 in assay [2] and in assay [3] were 3500 nM and 95 nM, respectively.
For `COc1ccc(-c2cnc3nc(N)nc(N4CCN(C(=O)Nc5ccc(F)cc5)CC4)c3n2)cc1OC` [Example 100], the IC50 in assay [1] was 7.4 nM; in assay [2], 7400 nM; in assay [3] it was 510 nM.
Take `COc1ccc(-c2cnc3nc(N)nc(N4CCN(Cc5ccncc5)CC4)c3n2)cc1OC` [Example 157]: the figures for the IC50 in assay [1], in assay [2] and in assay [3] were 500 nM, 2300 nM and 300 nM, respectively.
With `COc1ccc(OC(=O)N2CCN(c3nc(N)nc4ncc(-c5ccc(OC)c(OC)c5)nc34)CC2)cc1` [Example 91, 2-amino-4-[(N-4-methoxy-phenoxy-carbonyl)-piperazin-1-yl]-6-(3,4-dimethoxy-phenyl)pteridine], the IC50 was 52 nM in assay [1], 4200 nM in assay [2] and 60 nM in assay [3].
As for `COc1ccc(-c2cnc3nc(N)nc(N4CCN(C(=O)Oc5ccc(F)cc5)CC4)c3n2)cc1OC` [Example 92, 2-amino-4-[(N-4-fluoro-phenoxy-carbonyl)-piperazin-1-yl]-6-(3,4-dimethoxyphenyl)pteridine], the IC50 was 50 nM in assay [1], 8600 nM in assay [2] and 60 nM in assay [3].
In the case of `COc1ccc(-c2cnc3nc(N)nc(N4CCN(C(=O)CCc5ccccc5)CC4)c3n2)cc1OC` [Example 15, 2-amino-4-[(N-hydrocinnamoyl)-piperazin-1-yl]-6-(3,4-dimethoxyphenyl)pteridine], the IC50 in assay [1] was found to be 100 nM; in assay [2], 7000 nM; in assay [3], 10 nM.
For `COc1ccc(-c2cnc3nc(N)nc(N4CCN(C(=O)Nc5ccsc5)CC4)c3n2)cc1OC` [Example 107, 2-amino-4-(N-3-thienylcarbamoyl-piperazin-1-yl)-6-(3,4-dimethoxyphenyl)pteridines], in that order: 3 nM, 800 nM and 500 nM.
Take `COc1ccc(-c2cnc3nc(N)nc(N4CCN(c5ncccn5)CC4)c3n2)cc1OC` [Example 147, 2-amino-4-((2-pyrimidinyl)-piperazin-1-yl)-6-(3,4-dimethoxyphenyl)pteridine]: the IC50 in assay [1] came to 200 nM; in assay [2], 4300 nM; in assay [3], 100 nM.
Regarding `CC(=O)N1CCN(c2nc(N)nc3ncc(-c4ccc(F)cc4)nc23)CC1` [Example 57, 2-amino-4-(N-acetylpiperazin-1-yl)-6-(4-fluoro-phenyl)pteridine], the results for the IC50 in assay [1] and in assay [2] were 1900 nM and 9500 nM, respectively.
With `COc1ccc(-c2cnc3nc(N)nc(N4CCN(C(=O)OCC(C)C)CC4)c3n2)cc1OC` [Example 95, 2-amino-4-[N-isobutoxy-carbonyl-piperazin-1-yl]-6-(3,4-dimethoxyphenyl)pteridine], the IC50 in assay [1] stood at 120 nM; in assay [2], 1000 nM; in assay [3], 100 nM.
As to `COc1ccc(-c2cnc3nc(N)nc(N4CCN(c5cccc(C(F)(F)F)c5)CC4)c3n2)cc1OC` [Example 173, 2-amino-6-(3,4-dimethoxyphenyl)-4-((3-trifluoromethylphenyl)-piperazin-1-yl)pteridine], the IC50 in assay [1] turned out to be 700 nM; in assay [2] it was 4600 nM.
With “2-amino-4-((3-dichlorophenyl)-piperazin-1-yl)-6-(3,4-dimethoxyphenyl)pteridine [Example 151]”, the figures for the IC50 in assay [2] and in assay [3] were 3700 nM and 100 nM, respectively.
`COc1ccc(-c2cnc3nc(N)nc(N4CCN(C(=O)NCCc5cccs5)CC4)c3n2)cc1OC` [Example 108, 2-amino-4-[N-2-(2-thienyl)ethylcarbamoyl-piperazin-1-yl]-6-(3,4-dimethoxyphenyl)pteridine]: the IC50 amounted to 34 nM in assay [1], 1000 nM in assay [2] and 400 nM in assay [3].
In the case of `COc1ccc(-c2cnc3nc(N)nc(N4CCN(CC(=O)N(C)c5ccccc5)CC4)c3n2)cc1OC` [Example 132, 2-amino-4-(2-[piperazin-1-yl]-acetic acid N-methyl N-phenyl amide)-6-(3,4-dimethoxyphenyl)pteridine], the IC50 is less than 100 nM in assay [1], 5300 nM in assay [2] and 50 nM in assay [3].
Regarding `COc1ccc(-c2cnc3nc(N)nc(N4CCN(C(=O)Cc5cccs5)CC4)c3n2)cc1OC` [Example 36, 2-amino-4-[(N-2-thiophenacetyl)-piperazin-1-yl]-6-(3,4-dimethoxy-phenyl)pteridine], the results for the IC50 in assay [1], in assay [2] and in assay [3] were 800 nM, 800 nM and 300 nM, respectively.
For the compound “2-amino-4-(1-cyclopentylpiperazino)-6-(3,4-dimethoxyphenyl)pteridine [Example 124]”, the IC50 is 5000 nM in assay [2] and 400 nM in assay [3].
Regarding “2-amino-4-(3-(piperazin-1-yl)-propionic acid ethyl ester)-6-(3,4-dimethoxyphenyl)pteridine [Example 134]”, the IC50 in assay [2] came to 1200 nM; in assay [3] it was 70 nM.
Taken in the same sequence, the figures for `COc1ccc(-c2cnc3nc(N)nc(N4CCN(Cc5ccc(Cl)cc5)CC4)c3n2)cc1OC` [Example 139, 2-amino-4-((4-chlorobenzyl)piperazin-1-yl)-6-(3,4-dimethoxyphenyl)pteridine] were 1200 nM and 400 nM.
Regarding `CCCCCOc1ccc(C(=O)N2CCN(c3nc(N)nc4ncc(-c5ccc(OC)c(OC)c5)nc34)CC2)cc1` [Example 21, 2-amino-4-[N-(4-pentoxybenzoyl)-piperazin-1-yl]-6-(3,4-dimethoxy-phenyl)pteridine], the IC50 worked out at 6000 nM in assay [1] and 6700 nM in assay [2].
Turning to `COc1ccc(-c2cnc3nc(N)nc(N4CCN(C(=O)c5cccc6ccccc56)CC4)c3n2)cc1OC` [Example 46], the IC50 in assay [2] was found to be 800 nM; in assay [3] it was 200 nM.
As for “2-amino-4-(1-butylpiperazino)-6-(3,4-dimethoxyphenyl)pteridine [Example 125]”, the IC50 is 800 nM in assay [1] and 7500 nM in assay [2].
“2-amino-4-(1-isopropylpiperazino)-6-(3,4-dimethoxyphenyl)pteridine [Example 126]”: the IC50 stood at 4900 nM in assay [1] and 3700 nM in assay [2].
Regarding `COc1ccc(-c2cnc3nc(N)nc(N4CCN(c5ccc(C(F)(F)F)cc5)CC4)c3n2)cc1OC` [Example 180, 2-amino-6-(3,4-dimethoxyphenyl)-4-((4-trifluoromethylphenyl)-piperazin-1-yl)pteridine], the IC50 in assay [2] came to 4400 nM; in assay [3], 1400 nM.
Turning to `COc1ccc(-c2cnc3nc(N)nc(N4CCN(C(=O)Nc5ccc(F)c(Cl)c5)CC4)c3n2)cc1OC` [Example 106, 2-amino-4-(N-3-chloro-4-fluorophenylcarbamoyl-piperazin-1-yl)-6-(3,4-dimethoxyphenyl)pteridine], the IC50 in assay [1] is 58 nM; in assay [3] it was 1400 nM.
Taken in the same sequence, the figures for `COc1ccc(-c2cnc3nc(N)nc(N4CCN(C(=O)c5ccc(Cl)c(Cl)c5)CC4)c3n2)cc1OC` [Example 44, 2-amino-4-[N-(3,4-dichlorobenzoyl)-piperazin-1-yl]-6-(3,4-dimethoxy-phenyl)pteridine] were 200 nM and 700 nM.
For `COc1ccc(-c2cnc3nc(N)nc(N4CCN(C(=O)C5CCCCC5)CC4)c3n2)cc1OC` [Example 30, 2-amino-4-[(N-cyclohexylcarbonyl)-piperazin-1-yl]-6-(3,4-dimethoxy-phenyl)pteridine], in that order: 100 nM and 300 nM.
Taken in the same sequence, the figures for `COc1ccc(-c2cnc3nc(N)nc(N4CCN(C(=O)Oc5ccccc5Cl)CC4)c3n2)cc1OC` [Example 96, 2-amino-4-[N-(2-chloro)-phenoxy-carbonyl-piperazin-1-yl]-6-(3,4-dimethoxyphenyl)pteridine] were 150 nM and 10 nM.
For `COc1ccc(-c2cnc3nc(N)nc(N4CCN(C(=S)Oc5ccccc5)CC4)c3n2)cc1OC` [Example 51, 2-amino-4-[(N-phenoxythiocarbonyl)-piperazin-1-yl]-6-(3,4-dimethoxy-phenyl)pteridine], the IC50 in assay [1] came out at 300 nM; in assay [3], 40 nM.
Turning to `COc1cc(-c2cnc3nc(N)nc(N4CCN(c5ccc(C)cc5)CC4)c3n2)ccc1O` [Example 206], the figures for the IC50 in assay [1] and in assay [3] were 500 nM and 700 nM, respectively.
